Measurements: patent US6537948B1, “Uracil compounds and use thereof” (Sumitomo Chemical Company, Limited, priority 2000, dated 2003)

How the values were obtained:
[1] = system: ivyleaf morningglory (Ipomoea hederacea); experiment: Test Example 2: soil surface treatment of field; format: in vivo; settings: soil surface spray, dosage 500 g/ha, 19 days after application
From the text: (§1) A cylindrical plastic pot having a diameter of 10 cm and a depth of 10 cm was filled with soil and then seeded with ivyleaf morningglory (Ipomoea hederacea) and velvetleaf (Abutilon theophrasti). Then, each of the compounds 1-2, 1-42, 1-48, 2-2, 2-7, 2-42, 2-45, 3-2, 3-12, 4-7, 4-85, 5-12-R, 5-12-S, 5-17, 6-2, 7-2, 7-6, 7-8, 7-12, 7-48, 7-50, 7-84, 7-118, 7-119, 7-125, 9-7, 9-27 and 9-45 was formulated into an emulsifiable concentrate according to Formulation Example 2 and then diluted to the prescribed amount with water, and the dilution was uniformly sprayed over the surface of the soil with a sprayer at a rate of 1000 liters per hectare. After the application, the test plants were grown in the greenhouse for 19 days, and the herbicidal activity was examined.

[2] = system: velvetleaf (Abutilon theophrasti); experiment: Test Example 2: soil surface treatment of field; format: in vivo; settings: soil surface spray, dosage 500 g/ha, 19 days after application
From the text: as §1

[3] = system: ivyleaf morningglory (Ipomoea hederacea); experiment: Test Example 1: foliar treatment of field; format: in vivo; settings: foliar spray, dosage 125 g/ha, 16 days after application
Procedure: (§2) A cylindrical plastic pot having a diameter of 10 cm and a depth of 10 cm was filled with soil and then seeded with ivyleaf morningglory (Ipomoea hederacea) and velvetleaf (Abutilon theophrasti). These test plants were grown in a greenhouse for 10 days. Then, each of compounds 1-2, 1-42, 1-45, 1-48, 2-2, 2-7, 2-42, 2-45, 3-2, 3-12, 4-7, 4-85, 5-12-R, 5-12-S, 5-17, 6-2, 7-2, 7-6, 7-8, 7-12, 7-48, 7-50, 7-84, 7-118, 7-119, 7-125, 9-7, 9-27 and 9-45 was formulated into an emulsifiable concentrate according to Formulation Example 2 and then diluted to the prescribed amount with water containing a spreading agent and the dilution was uniformly sprayed over the foliage of the test plants with a sprayer at a rate of 1000 liters per hectare. After the application, the test plants were grown in the greenhouse for 16 days, and the herbicidal activity was determined.

[4] = system: velvetleaf (Abutilon theophrasti); experiment: Test Example 1: foliar treatment of field; format: in vivo; settings: foliar spray, dosage 125 g/ha, 16 days after application
Procedure: as §2

SMILES | growth of ivyleaf morningglory (herbicidal activity) [1] | growth of velvetleaf (herbicidal activity) [2] | melting point [°C] | growth of ivyleaf morningglory (herbicidal activity) [3] | growth of velvetleaf (herbicidal activity) [4]
COC(=O)COc1ncccc1Oc1cc(-n2c(=O)cc(C(F)(F)F)n(C)c2=O)c(F)cc1C#N [Compound 9-27, 3-{2-cyano-4-fluoro-5-[3-methyl-2,6-dioxo-4-(trifluoromethyl)-1,2,3,6-tetrahydropyrimidin-1-yl]phenoxy}-2-(methoxycarbonyl)methoxypyridine] | completely controlled | completely controlled | 173.1 | completely controlled | completely controlled
COC(=O)COc1ncncc1Oc1cc(-n2c(=O)cc(C(F)(F)F)n(C)c2=O)c(F)cc1Cl [Compound 4-7, 5-{2-chloro-4-fluoro-5-[3-methyl-2,6-dioxo-4-(trifluoromethyl)-1,2,3,6-tetrahydropyrimidin-1-yl]phenoxy}-4-(methoxycarbonyl)methoxypyrimidine] | completely controlled | completely controlled | 52.5 | completely controlled | completely controlled
COC(=O)COc1cncnc1Oc1cc(-n2c(=O)cc(C(F)(F)F)n(C)c2=O)c(F)cc1Cl [Compound 3-57, 4-{2-chloro-4-fluoro-5-[3-methyl-2,6-dioxo-4-(trifluoromethyl)-1,2,3,6-tetrahydropyrimidin-1-yl]phenoxy}-5-(methoxycarbonyl)methoxypyrimidine] |  |  | 62.5 |  | 
COC(=O)C(C)Oc1ccnc(Sc2cc(-n3c(=O)cc(C(F)(F)F)n(C)c3=O)c(F)cc2Cl)n1 (centres unmarked) [Compound 6-2, methyl 2-([2-{2-chloro-4-fluoro-5-[3-methyl-2,6-dioxo-4-(trifluoromethyl)-1,2,3,6-tetrahydropyrimidin-1-yl]phenylthio}pyrimidin-4-yl]oxy}propionate] | completely controlled | completely controlled | 60.2 | completely controlled | completely controlled
CCOC(=O)COc1ncccc1Oc1cc(-n2c(=O)cc(C(F)(F)F)n(C)c2=O)c(F)cc1Cl [Compound 7-8, 3-{2-chloro-4-fluoro-5-[3-methyl-2,6-dioxo-4-(trifluoromethyl)-1,2,3,6-tetrahydropyrimidin-1-yl]phenoxy}-2-(ethoxycarbonyl)methoxypyridine] | completely controlled | completely controlled |  | completely controlled | completely controlled
COC(=O)COc1nc(C)ncc1Oc1cc(-n2c(=O)cc(C(F)(F)F)n(C)c2=O)c(F)cc1Cl [Compound 4-85, 5-{2-chloro-4-fluoro-5-[3-methyl-2,6-dioxo-4-(trifluoromethyl)-1,2,3,6-tetrahydropyrimidin-1-yl]phenoxy}-4-(methoxycarbonyl)methoxy-2-methylpyrimidine] | completely controlled | completely controlled |  | completely controlled | completely controlled
CCCOC(=O)COc1ncccc1Oc1cc(-n2c(=O)cc(C(F)(F)F)n(C)c2=O)c(F)cc1Cl [Compound 7-48, 3-{2-chloro-4-fluoro-5-[3-methyl-2,6-dioxo-4-(trifluoromethyl)-1,2,3,6-tetrahydropyrimidin-1-yl]phenoxy}-2-(n-propoxycarbonyl)methoxypyridine] | completely controlled | completely controlled |  | completely controlled | completely controlled
COC(=O)C(C)Oc1cc(OC)nc(Oc2cc(-n3c(=O)cc(C(F)(F)F)n(C)c3=O)c(F)cc2Cl)n1 (centres unmarked) [Compound 1-42, 2-{2-chloro-4-fluoro-5-[3-methyl-2,6-dioxo-4-(trifluoromethyl)-1,2,3,6-tetrahydropyrimidin-1-yl]phenoxy}-6-methoxy-4-{1-(methoxycarbonyl)ethoxy}pyrimidine] | completely controlled | completely controlled | 71.2 | completely controlled | completely controlled
COC(=O)C(C)Oc1ccc(Oc2cc(-n3c(=O)cc(C(F)(F)F)n(C)c3=O)c(F)cc2Cl)cn1 (centres unmarked) [Compound 7-12, 5-{2-chloro-4-fluoro-5-[3-methyl-2,6-dioxo-4-(trifluoromethyl)-1,2,3,6-tetrahydropyrimidin-1-yl]phenoxy}-2-{1-(methoxycarbonyl)ethoxy}pyridine] | completely controlled | completely controlled |  | completely controlled | completely controlled
COC(=O)[C@H](C)Oc1n[nH]c(C)c1Oc1cc(-n2c(=O)cc(C(F)(F)F)n(C)c2=O)c(F)cc1Cl [Compound 5-12-S, (S)-3-{1-(methoxycarbonyl)ethoxy}-4-{2-chloro-4-fluoro-5-[3-methyl-2,6-dioxo-4-(trifluoromethyl)-1,2,3,6-tetrahydropyrimidin-1-yl]phenoxy}-5-methylpyrazole] | completely controlled | completely controlled |  | completely controlled | completely controlled
COC(=O)COc1n[nH]c(C)c1Oc1cc(-n2c(=O)cc(C(F)(F)F)n(C)c2=O)c(F)cc1Cl [Compound 5-17, 3-(methoxycarbonyl)methoxy-4-{2-chloro-4-fluoro-5-[3-methyl-2,6-dioxo-4-(trifluoromethyl)-1,2,3,6-tetrahydropyrimidin-1-yl]phenoxy}-5-methylpyrazole] | completely controlled | completely controlled |  | completely controlled | completely controlled
CONC(=O)COc1ncccc1Oc1cc(-n2c(=O)cc(C(F)(F)F)n(C)c2=O)c(F)cc1Cl [Compound 7-84, 3-{2-chloro-4-fluoro-5-[3-methyl-2,6-dioxo-4-(trifluoromethyl)-1,2,3,6-tetrahydropyrimidin-1-yl]phenoxy}-2-[(methoxyaminocarbonyl)methoxy]pyridine] | completely controlled | completely controlled |  | completely controlled | completely controlled
COC(=O)COc1ncccc1Oc1cc(-n2c(=O)cc(C(F)(F)F)n(C)c2=O)c(F)cc1[N+](=O)[O-] [Compound 9-45, 3-{4-fluoro-5-[3-methyl-2,6-dioxo-4-(trifluoromethyl)-1,2,3,6-tetrahydropyrimidin-1-yl]-2-nitrophenoxy}-2-(methoxycarbonyl)methoxypyridine] | completely controlled | completely controlled |  | completely controlled | completely controlled
